# Test results from patent publication US7585843B2, “Treatment of demyelinating autoimmune disease with modified ordered peptides” (Bayhill Therapeutics, Inc., priority 2003, dated 2009).
# “Also recorded” adds a separate entry of the source. Where two headings read alike, the source gives them in different places. Non-standard residues stand in square brackets, D forms with d. No end group written: not given here.
# Assays:
# rat MHC class II = assay: Blocking of native peptide binding to MHC by FACS (FIG. 3), rat; conditions: biotinylated peptide on spleen APCs
# Experimental: (§1) The ability of MBP therapeutic ordered peptide EYYKEYYKEYYK, substituted MBP therapeutic ordered peptide D-Ala-EYYKEYYKEYYK-amide, or Copaxone to block the binding of the native peptide to either a mouse or rat MHC was measured by FACS analysis.
# (§2) Peptide binding to class II molecules was measured as follows. Briefly, APCs (antigen presenting cells) were purified from spleen cells by negative selection using magnetic beads (Dynal, Oslo, Norway) conjugated with antibodies specific for T cells (CD52), macrophages (CD45R), and NK cells (NKR-P1A) (Pharmingen, San Diego, Calif.). After selection, cells were plated at a concentration of 0.5×10^6 cells per well in flat bottom 96 well microtiter plates (Costar, Corning, N.Y.). Therapeutic ordered peptides were used as inhibitors are added to the wells at different concentrations (ranging from 0.01 to 0.24 mM) in a volume of 0.05 ml. After an hour of incubation at 37° C., 0.01 mM of biotinylated MBP, MOG, or PLP peptide was added. After four more hours of incubation, cells were harvested and binding of PE-Avidin to the cell surface was analyzed by FACS (Becton Dickinson, San Jose, Calif.). To determine the IC50 value of the therapeutic ordered peptide, for example EYYK, a linear regression curve was calculated using data points from 0.01 mM to […].
# mouse MHC class II = assay: Blocking of native peptide binding to MHC by FACS (FIG. 3), mouse; conditions: biotinylated peptide on spleen APCs
# Experimental: as §1, §2
# [1] = test system: PLPp139-151 specific T cell line; assay: T cell proliferation assay (FIG. 4); format: cell-based
# Experimental: FIG. 4 is a graph showing the blocking by the therapeutic ordered peptide of T cell proliferation. The ability of MBP therapeutic ordered peptide (EYYKEYYKEYYK), substituted MBP therapeutic ordered peptide (D-Ala-EYYKEYYKEYYK-amide), or Copaxone to block the proliferation of a PLPp139-151 specific T cell line was measured in a proliferation assay.
# The ability of therapeutic ordered peptide EYYKEYYKEYYK, modified therapeutic ordered peptide D-Ala-EYYKEYYKEYYK-amide, or Copaxone to block the proliferation of a PLPp139-151 specific T cell line was measured in a proliferation assay.
# EAE in Lewis rats [2] = assay: Blocking of EAE induction in Lewis rats, peptide mixed into encephalitogenic emulsion (FIG. 5); format: in vivo, rat; conditions: 0.5 mg mixed into MBPp85-99/CFA emulsion, 12-13 animals
# Experimental: FIG. 5 is a graph showing the blocking of induction of EAE by the substituted D-Ala form of the therapeutic ordered peptide. Lewis rats were injected with an emulsion of 0.1 mg of MBPp85-99 in complete Freund's adjuvant for EAE induction. Either of 0.5 mg MBP therapeutic ordered peptide EYYKEYYKEYYK, substituted MBP therapeutic ordered peptide D-Ala-EYYKEYYKEYYK-amide, or Copaxone was mixed into the encephalitogenic emulsion. Results are expressed as mean disease score of 12-13 animals.
# (§3) EAE induction. Synthetic peptide MBPp85-99 was dissolved in PBS to a concentration of 2 mg/ml and emulsified with and equal volume of Incomplete Freund's Adjuvant (IFA), supplemented with 4 mg/ml heat-killed Mycobacterium tuberculosis H37Ra (Difco Laboratories, Detroit, Mich.). Rats were injected subcutaneously with 0.1 ml of the peptide emulsion. Experimental animals were scored as follows: 0, no clinical disease; 1, tail weakness or paralysis; 2, hind limb weakness; 3, hind limb paralysis; 4, forelimb weakness or paralysis; 5, moribund or dead animal.
# The ability of therapeutic ordered peptide EYYKEYYKEYYK, modified therapeutic ordered peptide D-Ala-EYYKEYYKEYYK-amide, or Copaxone to treat a rat model of EAE was tested. A single 0.5 mg dose of each of these peptides was administered along with the encephalitogen (MBP 85-99 peptide in CFA) as an emulsion.
# [3] = test system: T cell lines from immunized mice; assay: Cytokine production by T cell lines from immunized mice (FIG. 6); format: cell-based; conditions: T cell lines from mice immunized with the antigen
# Text: OVA is known to cause an induction of Th1 type of T cells after immunization.
# One of the mechanisms proposed for the efficacy of Copaxone in MS is the induction of Th2 type of antigen-specific T cells that are beneficial in treating the disease process.
# In a similar protocol we immunized mice with D-ala modified ordered peptide, non-modified ordered peptide, and control peptides including Cop1 and ovalbumin (OVA). OVA is known to cause an induction of Th1 type of T cells after immunization.
# EAE in Lewis rats [4] = assay: EAE treatment in Lewis rats, single dose at disease onset (FIG. 1); format: in vivo, rat; conditions: MBPp85-99-induced EAE, single intraperitoneal dose 0.5 mg in PBS at disease onset (day 10)
# Experimental: FIG. 1 is a graph showing the prevention of EAE in rats treated with therapeutic ordered peptides. […] Animals were injected with an emulsion of 0.1 mg of MBPp85-99 in complete Freund's adjuvant for EAE induction. Ten days later, when the clinical manifestations of disease became apparent, a single intra-peritoneal dose of MBP therapeutic ordered peptide {SEQ ID NO:4} EYYKEYYKEYYK (squares), {SEQ ID NO:5} KYYKYYKYYKYY (triangles), or PBS (circles)was administered. Results are expressed as mean disease score of groups of six animals.
# Animals. Female Lewis rats (6-8 weeks old), were purchased from Harlan Sprague Dawley (Indianapolis, Ind.)
# as §3
# EAE treatment. Rats previously immunized with MBPp85-99 for EAE induction were scored from day eight after peptide injection. […]
# EAE in mice = assay: Relapse rates in mice with ongoing EAE induced with PLPp139-151 (FIG. 2); format: in vivo; conditions: PLPp139-151-induced EAE; treated days 17, 29, 36; i.v., i.p. or s.c.; 0.5 or 0.05 mg per mouse; in mannitol
# Experimental: FIG. 2 is a graph depicting the reduction in relapse rates in mice with EAE treated with ordered peptides. Animals were induced for EAE with an emulsion of 0.1 mg of PLPp139-151 in complete Freund's adjuvant (day 0). Mice were randomized into equal groups at the peak of disease and were treated at days 17, 29, and 36 after EAE induction with intravenous, intra-peritoneal or subcutaneous administration of EYYKEYYKEYYK (MBP therapeutic ordered peptide) or Copaxone at two different dosages, 0.5 mg per mouse or 0.05 mg per mouse. Both the MBP therapeutic ordered peptide and Copaxone were dissolved in mannitol.
# Injection of ordered peptides containing TCR-MHC binding motifs reverse the development of EAE. In order to test the potential of the predicted sequences to revert the development of ongoing EAE we delivered a single dose of a PBS solution containing 0.5 mg of peptide in 0.25 ml. […] In addition, ordered peptide treatment was administered in a mouse model of ongoing-EAE (FIG. 2) at days 17, 29, and 36 after EAE induction with intravenous, intra-peritoneal or subcutaneous administration of EYYKEYYKEYYK (therapeutic ordered peptide) or Copaxone at two different dosages, 0.5 mg per mouse or 0.05 mg per mouse. Both the therapeutic ordered peptide and Copaxone were dissolved in mannitol.
# [5] = test system: anti-MBP antibodies affinity-purified from CNS lesions; assay: Inhibition of autoantibody binding to MBP; set-up: species or system human; conditions: antibodies from CNS lesions of 12 post-mortem MS cases
# Text: Previously, we have compared the structural requirements for autoantibody recognition to those of T cell clones reactive to MBP p87-99. Anti-MBP antibodies were affinity-purified from CNS lesions of 12 post-mortem cases studied. The MBP p87-99 peptide was immunodominant in all cases and it inhibited autoantibody binding to MBP by more than 95%. Residues contributing to autoantibody binding were located in a 10-amino acid segment p86-95 ({SEQ ID NO:9} VVHFFKNIVT) that also contained the MHC-T cell receptor contact residues for T cells recognizing MBP in the context of DRB1*1501 and DQB1*0602. In the epitope center, the same residues, {SEQ ID NO:10} VHFFK, were important for T cell binding and MHC recognition. Recently, the crystal structure of HLA-DR2 with MBPp85-99 was solved, confirming the prediction that K91 is the major TCR contact residue, while F90 is a major anchor into the hydrophobic P4 pocket of the MHC molecule.
substance,measurement,setting,value
D-Ala-EYYKEYYKEYYK-amide ([dA]EYYKEYYKEYYK-NH2; N-terminus assumed; SMILES C[C@@H](N)C(=O)N[C@@H](CCC(=O)O)C(=O)N[C@@H](Cc1ccc(O)cc1)C(=O)N[C@@H](Cc1ccc(O)cc1)C(=O)N[C@@H](CCCCN)C(=O)N[C@@H](CCC(=O)O)C(=O)N[C@@H](Cc1ccc(O)cc1)C(=O)N[C@@H](Cc1ccc(O)cc1)C(=O)N[C@@H](CCCCN)C(=O)N[C@@H](CCC(=O)O)C(=O)N[C@@H](Cc1ccc(O)cc1)C(=O)N[C@@H](Cc1ccc(O)cc1)C(=O)N[C@@H](CCCCN)C(N)=O) [substituted (modified) MBP therapeutic ordered peptide],blocking of binding of native MBP peptide to rat MHC class II (mean fluorescence intensity),rat MHC class II,more effective in blocking either MHC than the non-D-ala form
same,blocking of binding of native MBP peptide to rat MHC class II (mean fluorescence intensity),rat MHC class II; listed as D-Ala EYYK,higher affinity of binding to these MHC's than the unmodified EYYK; also recorded: approaches the binding achieved by Copaxone
same,blocking of binding of native MBP peptide to rat MHC class II (mean fluorescence intensity),rat MHC class II; listed as D-ala-EYYK,comparable amount of inhibition
same,blocking of binding of native PLP peptide to mouse MHC class II (mean fluorescence intensity),mouse MHC class II,more effective in blocking either MHC than the non-D-ala form
same,blocking of binding of native PLP peptide to mouse MHC class II (mean fluorescence intensity),mouse MHC class II; listed as D-Ala EYYK,higher affinity of binding to these MHC's than the unmodified EYYK; also recorded: approaches the binding achieved by Copaxone
same,blocking of binding of native PLP peptide to mouse MHC class II (mean fluorescence intensity),mouse MHC class II; listed as D-ala-EYYK,comparable amount of inhibition
same,reduction in T cell proliferation,[1],dose dependent reduction in T cell proliferation; also recorded: exceeds the reduction in T cell proliferation for either the unmodified ordered peptide or for Copaxone
same,reduction in T cell proliferation,[1]; listed as D-Ala EYYK,dose dependent reduction in T cell proliferation; also recorded: exceeds the reduction in proliferation with either the unmodified ordered peptide or Copaxone
same,reduction in T cell proliferation,[1]; listed as D-ala EYYK,more effective in blocking T cell proliferation than the unmodified EYYK
same,"blocking of EAE induction, mean disease score",EAE in Lewis rats [2],more effective in blocking EAE induction than the un-substituted therapeutic ordered peptide; also recorded: superiority of the D-Ala form of the ordered peptide over the non-substituted form; also recorded: nearly reaches the efficacy of Copaxone
same,IL4 production,[3],increased production of IL4 and IL10
same,IL10 production,[3],increased production of IL4 and IL10
"EYYKEYYKEYYK [MBP therapeutic ordered peptide, motif [EYYK]n with n=3]","EAE development, mean disease score",EAE in Lewis rats [4],prevents the development of EAE; also recorded: effective in preventing and treating experimental autoimmune encephalomyelitis
same,relapse rates per mouse,EAE in mice,reduce relapse rates similarly
same,blocking of binding of native MBP peptide to rat MHC class II (mean fluorescence intensity),rat MHC class II,comparable amount of inhibition
same,blocking of binding of native PLP peptide to mouse MHC class II (mean fluorescence intensity),mouse MHC class II,comparable amount of inhibition
"MBP p87-99: myelin basic protein peptide 87-99, immunodominant epitope (SRPHLIRLFSRDA; UniProt P02686 87-99, looked up, fragment)",inhibition of autoantibody binding to MBP,[5],more than 95%
"OVA: ovalbumin, control known to cause an induction of Th1 type of T cells after immunization [reference compound]",IL4 production,[3],did not cause an increase in these cytokines
same,IL10 production,[3],did not cause an increase in these cytokines
